In patent publication US20170349548A1, “P21-ACTIVATED KINASE INHIBITOR” (Biosystem Consulting Limited Company, priority 2014, published 2017):
Where “and” joins values, the source holds several entries; their conditions need not be identical. Equal entries are not always repeated.

Each compound was assayed against T1, Human PAK1 (Homo sapiens, UniProt Q13153) (assay: PAK1 inhibitory activity, ADP-Glo kinase assay). Conditions: Human PAK1 25 ng; 10 min preincubation with test compound, 40 min with ATP/substrate mix; room temperature; luminescence; read-out: IC50 (PAK1 inhibitory activity).
T1 construct: purchased Promega V4479
Type: biochemical
Method: The PAK inhibitory activities of the dehydrokawain compounds, mimosine or derivatives thereof and cucurbitacin I were determined. Assay of the PAK1 inhibitory activity was carried out using an ADP-Glo™ kinase assay kit (V4479, Promega, Madison, Wis.). Human PAK1 (10 μL) at a reaction concentration of 25 ng was incubated with 5 μL of the test compounds at the respective concentrations for 10 minutes. At the beginning of the reaction, 2.5×ATP/substrate mix (10 μL) was added and incubated for 40 minutes. The reaction was terminated by adding […]. In addition, 50 μL of Kinase detection reagent was added to cause the conversion of ADP to ATP and the emission reaction of freshly synthesized ATP. After incubation for 30 minutes, the intensity of emission in each well was measured by a Microplate Reader (MTP-880Lab, Corona) for 0.5 seconds as integration time. To the blank well was added all of the ingredients except for the test compounds and enzymes. The procedure was conducted at room temperature all the time. The inhibition rate was determined as the value on the kinase activity of control to which the inhibitor was not added.

T1 sequence (Q13153 whole entry): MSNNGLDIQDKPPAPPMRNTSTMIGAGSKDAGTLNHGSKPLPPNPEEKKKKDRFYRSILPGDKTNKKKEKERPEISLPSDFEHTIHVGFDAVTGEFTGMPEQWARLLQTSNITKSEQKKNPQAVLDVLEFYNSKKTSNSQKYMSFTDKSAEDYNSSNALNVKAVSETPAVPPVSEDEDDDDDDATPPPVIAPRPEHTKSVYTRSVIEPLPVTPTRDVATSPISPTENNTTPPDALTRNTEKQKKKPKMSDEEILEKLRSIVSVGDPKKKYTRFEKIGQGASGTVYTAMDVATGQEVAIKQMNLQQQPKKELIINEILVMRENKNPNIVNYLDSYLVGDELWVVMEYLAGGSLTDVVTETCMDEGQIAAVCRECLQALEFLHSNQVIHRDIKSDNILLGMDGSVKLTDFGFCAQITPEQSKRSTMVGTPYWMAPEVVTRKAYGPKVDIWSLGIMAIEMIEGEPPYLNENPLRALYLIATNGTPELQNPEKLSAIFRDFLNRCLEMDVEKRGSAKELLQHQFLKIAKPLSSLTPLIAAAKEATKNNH

For COc1cc(CCc2ccccc2)oc(=O)c1 [DDK, dihydro-5,6-dehydrokawain], the IC50 was 10 µM and 10.3 µM.
COc1cc(/C=C/c2ccccc2)oc(=O)c1 [DK, 5,6-dehydrokawain] was tested, and the IC50 was 17 µM and 17.1 µM.

In order of rising IC50:
1. N[C@@H](Cn1ccc(=O)c(O)c1)C(=O)N[C@@H](Cc1ccccc1)C(=O)N[C@@H](Cc1ccccc1)C(=O)N[C@@H](Cc1ccc(O)cc1)C(=O)O [MFFY]  0.13 µM
2. N[C@@H](Cn1ccc(=O)c(O)c1)C(=O)N[C@@H](Cc1ccccc1)C(=O)N[C@@H](Cc1c[nH]c2ccccc12)C(=O)N[C@@H](Cc1ccc(O)cc1)C(=O)O [MFWY]  0.6 µM
3. COc1cc(CCc2ccc(OC)c(OC)c2)oc(=O)c1 [H2, 6-(3,4-dimethoxyphenethyl)-4-methoxy-2H-pyran-2-one]  1.2 µM
4. COc1cc(/C=C/c2ccc(OC)c(OC)c2)oc(=O)c1 [H1, 6-(3,4-dimethoxystyryl)-4-methoxy-2H-pyran-2-one]  1.6 µM
5. COc1cc(CCc2ccc(O)c(O)c2)oc(=O)c1 [H3, 6-(3,4-dihydroxyphenethyl)-4-methoxy-2H-pyran-2-one]  2 µM
6. N[C@@H](Cn1ccc(=O)c(O)c1)C(=O)N[C@@H](Cc1ccccc1)C(=O)N[C@@H](Cc1ccc(O)cc1)C(=O)N[C@@H](Cc1ccc(O)cc1)C(=O)O [MFYY]  2.3 µM
7. Oc1ccc(C=Cc2cc(O)cc(O)c2)cc1 [Resveratrol, resveratrol, reference compound]  15 µM
8. N[C@H](CO)Cn1ccc(=O)c(O)c1 [Mimosinol, mimosinol]  30 µM
9. N[C@@H](Cn1ccc(=O)c(O)c1)C(=O)O [Mimosine, β-[N-(3-hydroxy-4-pyridone)]-α-aminopropionic acid]  37 µM
10. O=c1c(O)c(-c2ccc(O)c(O)c2)oc2cc(O)cc(O)c12 [Quercetin, quercetin, reference compound]  340 µM

Same assay, conditions: IC50 (PAK1 inhibitory activity), Human PAK1 25 ng; 10 min preincubation with test compound, 40 min with ATP/substrate mix; room temperature; luminescence

CC(C)(O)/C=C/C(=O)[C@](C)(O)[C@H]1[C@H](O)C[C@@]2(C)[C@@H]3CC=C4C(C=C(O)C(=O)C4(C)C)[C@]3(C)C(=O)C[C@]12C (stereo partly shown) [Cucurbitacin I, cucurbitacin I] gave an IC50 of 19 µM.
